Results from patent publication US20140348850A1, “METHOD FOR REDUCING BLOOD PRESSURE USING INHIBITORS OF PLASMA KALLIKREIN” (JOSLIN DIABETES CENTER, priority 2008, published 2014).

How the values were obtained:
[1] = tested on: retinal vasculature of diabetic rats; test: Retinal vessel diameters, mean circulation time and retinal blood flow in STZ-diabetic rats (video fluorescein angiography); format: in vivo, Sprague Dawley rats
Procedure: FIGS. 2A and 2B are graphs showing normalized retinal blood flow (FIG. 2A) and increased blood vessel diameter (FIG. 2B) following ASP-440 administration in diabetic rats.
We examined the effect of ASP-440 on retinal vessel diameters, mean circulation times (MCT), and retinal blood flow (RBF) in rats with diabetes. Diabetes was induced in Sprague Dawley rats with an intraperitoneal injection of 55 mg/kg of streptozotocin (STZ) (Sigma, St. Louis, Mo., USA) in 10 mmol/l citrate buffer, pH 4.5 after a 12 h fast. Diabetes was confirmed with blood glucose measurements (>14 mmol/l) 24 h after STZ injection. The rats were housed under standard conditions with free access to water and standard food. Two weeks after diabetes onset rats were implanted with a subcutaneous osmotic model 2002 Alzet pump containing either 12 mg/ml ASP-440 or saline vehicle. Rats were infused for 2 weeks at a rate of 0.5 μg/hr. Retinal vessel diameters and MCT was measured after 4 weeks of total diabetes duration and RBF was calculated as described by Horio et al. (Diabetologia 47:113-23, 2004).
To make the measurements described above, the following procedure was used. […] The recorded fluorescein angiograms were digitized on a frame-by-frame basis and analyzed densitometrically to determine retinal vessel diameters and retinal mean circulation times (MCTs), as described by Horio et al. (supra). […] Vessel diameters in units of pixels were determined during peak fluorescein arterial and venous filling times at the defined vessel sample sites using a boundary-crossing algorithm. The average diameter for each vessel was measured for each sample site. […] At the fixed vessel sites, the average vessel fluorescence within a sample area defined by the vessel width was measured on a frame-by-frame basis to generate temporal fluorescence intensity or dye dilution curves. The resultant artery and vein fluorescence data were fit to a log normal distribution function from which average arterial and venous circulation times were calculated. […]

[2] = tested on: Ang-II-induced hypertension; test: BP-lowering effect in Ang-II-induced rat hypertension model (telemetry); format: in vivo; settings: rats infused with Ang-II 300 ng/kg/min; ASP-440 16 ƒg/kg/hr by subcutaneous osmotic pump; vs Ang-II alone
Source text: FIG. 1 is a graph showing the time course of systolic blood pressure (SBP) measured using telemetry in rats infused with Ang-II in the absence or presence of ASP-440. * and † indicate p<0.05 for Day 0 vs Ang-II alone (n=4) and Ang-II+ASP-440 (n=7), respectively. ‡ indicates p<0.05 for Ang-II alone vs Ang-Il^+ ASP-440. NS indicates statistically non-significant change from Day 0.
Rats were infused continuously with Ang-II, and concurrently with either ASP-440 or vehicle control. Treatments were achieved by the use of subcutaneous implantation of two sets of Alzet mini-osmotic pumps (DURECT corporation, Cupertino Calif.), one containing Ang-II, the other containing either ASP-440 or vehicle control. Angll (EMD Chemicals Inc, La Jolla, Calif.) was delivered at 300 ng/kg/min. ASP-440 was delivered at 16 ƒg/kg/hr, and control pumps were filled with vehicle (10% polyethylene glycol, 90% phosphate-buffered saline).
Blood pressure measurements by telemetry were performed using PA-C40 transmitters (Data Sciences International, St. Paul, Minn.). […] Rats were housed individually on a receiver pad and blood pressure was monitored continuously. […] Baseline readings (Day 0) were obtained 48 hours after catheter implantation, following implantation of Alzet mini-pumps.

[3] = 2 weeks subcutaneous pump infusion (12 mg/ml ASP-440), vs diabetic rats receiving vehicle

**Q.** Which results are given for `N=C(N)c1ccc(CNC(=O)c2cnn(Cc3ccccc3)c2)cc1` [ASP-440, 1-Benzyl-1H-pyrazole-4-carboxylic acid 4-carbamimidoyl-benzylamide]?
**A.** retinal blood flow (RBF) [1, 3]: increased RBF; retinal mean circulation time (MCT) [1, 3]: shortened MCT; retinal artery and vein diameters ([1]; 2 weeks subcutaneous pump infusion, vs nondiabetic rats and saline-treated diabetic rats): increased retinal artery and vein diameters; blood pressure (systolic, telemetry) [2]: capable of reducing blood pressure
